Assay results reported in patent publication US20210330611A1, “THERAPY FOR NEUROLOGICAL DISEASES/DISORDERS” (priority 2020, published 2021).
“And” between values parts separate entries of the source, which are not always exact repeats. Identical values can stand only once. Counter-ions that a name gives are not always drawn. Like-named read-outs stand apart in the source and are kept apart here.

Key:
in vitro [1] = conditions: rat, Cell Toxicity IC50 (uM) [cFib assay]
[2] = system: fibrin-induced microglia activation; assay: Image-based assay of fibrin-induced microglia activation (HTS and dose response); format: cell-based, rat; conditions: for IC50 / inhibition at 10 µM: Rattus norvegicus, Microglia; for inhibition at 10 µM: primary microglia HTS, fibrin stimulation, increased cell size (>800 μm^2) as marker of activation, read-out: Fibrin % inhibition
[3] = system: fibrin- and LPS-induced microglia activation; assay: cells; format: cell-based, rat; conditions: for inhibition at 10 µM: Rattus norvegicus
in vitro [4] = conditions: rat
primary rat microglia [5] = assay: Cell toxicity (dead cells, size <150 μm2) in coated fibrin (cFib) assay; conditions: primary microglia HTS, fibrin stimulation; decreased size (<150 μm^2) as marker of toxicity;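 as to Fibrin % cell toxicity: share of dead cells sized under 150 µm2 at 10 µM in fibrin-stimulated microglia HTS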
[6] = system: LPS-induced microglia activation; assay: Image-based assay of LPS-induced microglia activation (HTS and dose response); format: cell-based, rat; conditions: Rattus norvegicus, Microglia; for inhibition at 10 µM: primary microglia HTS, LPS stimulation, increased cell size (>800 μm^2) as marker of activation, read-out: LPS % inhibition
primary rat microglia [7] = assay: Cell toxicity (dead cells, size <150 μm2) in LPS assay; conditions: for LPS % cell toxicity: primary microglia HTS, LPS stimulation, decreased size (<150 μm^2) as marker of toxicity; for IC50: read-out: Cell Toxicity IC50 (uM) [LPS assay], LPS assay
[8] = 48 h, Table 1, dose response 0.001-20 μM, triplicates, primary rat microglia, 48 h, read-out: Fibrin IC50
[9] = dose response, fibrin-induced microglia activation, read-out: Fibrin IC50
[10] = fibrin-induced microglia activation, dose response, read-out: Fibrin IC50 (uM) (Suppl. Table 7)
[11] = HTS of 1907 compounds, quadrant by fibrin and LPS inhibition
[12] = Microglia, HTS hit classification, read-out: Hit
[13] = hit classification in microglia HTS, read-out: Cherry-picked Hit (Suppl. Table 7)
[14] = quadrant by fibrin and LPS inhibition in HTS of 1907 compounds
[15] = 48 h, Table 1, dose response 0.001-20 μM, triplicates, primary rat microglia, 48 h, read-out: LPS IC50
[16] = LPS-induced microglia activation, dose response, read-out: LPS IC50 (uM) (Suppl. Table 7)
[17] = dose response, LPS-induced microglia activation, read-out: LPS IC50
[18] = Table 3, read-out: Fibrin IC50 (uM) (Suppl. Table 7)
[19] = Microglia, Table 3, read-out: Cherry-picked Hit (Suppl. Table 7)
[20] = Table 3, read-out: LPS IC50 (uM) (Suppl. Table 7)

Row | Compound | IC50 (in vitro [1]; cFib assay) [µM] | IC50 [2, 8] [µM] | IC50 [2, 9] [µM] | IC50 [2, 10] [µM] | inhibition at 10 µM [2] [%] | Quadrant (FIG. 5b) [3, 11] | inhibition at 10 µM [3, 12] [%] | Quadrant (FIG. 5b) ([3]; Table 1, screen at 10 μM) | Quadrant (FIG. 5b) [3, 14] | IC50 (in vitro [4]) [µM] | Fibrin % cell toxicity (primary rat microglia [5]) | IC50 [6, 15] [µM] | inhibition at 10 µM ([6]; 48 h) [%] | IC50 [6, 16] [µM] | IC50 [6, 17] [µM] | LPS % cell toxicity (primary rat microglia [7]) | IC50 (in vitro [1]; Table 3) [µM] | Fibrin Selectivity [2] | inhibition at 10 µM [3, 19] [%] | Quadrant (FIG. 5b) ([3]; Table 3, screen at 10 μM) | also measured
1 | COc1c(C)c2c(c(O)c1C/C=C(\C)CCC(=O)OCCN1CCOCC1)C(=O)OC2 [Mycophenolate mofetil, reference compound] | > 20 | 2 | 2 | 2 | 94 | Q2 | > 50 | Q2 | Q2 | > 20 | 2% | 1 | 79 | 1 | 1 | 2% |  |  |  |  | inhibition at 10 µM [3, 13]: > 50%
2 | COc1c(C)c2c(c(O)c1C/C=C(\C)CCC(=O)O)C(=O)OC2 [Mycophenolic acid, reference compound] | > 20 | 1 | 1 | 1 | 94 | Q2 | > 50 | Q2 | Q2 | > 20 | 1% | 1 | 91 | 1 | 1 | 2% |  |  |  |  | inhibition at 10 µM [3, 13]: > 50%; Quadrant (FIG. 5b) ([3]; Table 2, screen at 10 μM): Q2; Activity ([3]; Table 7, fib = fibrin, LPS, tox = toxicity): fib/LPS
3 | COc1ccccc1N1CCN(CC(O)COc2cccc3ccccc23)CC1 (stereo not drawn) [Naftopidil dihydrochloride, reference compound] | > 20 | 7 | 7 | 7 | 59 | Q3 | > 50 | Q3 | Q3 | > 20 | 1% | > 20 | 32 | > 20 | > 20 | 0% | > 20 | 3 | > 50 | Q3 | Fibrin Selectivity (LOG10) [2]: 0.45; IC50 [2, 18]: 7 µM; IC50 [6, 20]: > 20 µM; IC50 (primary rat microglia [7]): > 20 µM
4 | CCOC(=O)O[C@]1(C(=O)COC(=O)CC)CC[C@H]2[C@@H]3CCC4=CC(=O)C=C[C@]4(C)[C@H]3[C@@H](O)C[C@@]21C [Prednicarbate, reference compound] | > 20 | 0.002 | 0.002 | 0.002 | 61 | Q2 | > 50 | Q2 | Q2 | > 20 | 1% | > 20 | 73 | > 20 | > 20 | 1% | > 20 | 8510 | > 50 | Q2 | IC50 (in vitro [1]; cFib assay, Table 6): > 20 µM; Fibrin Selectivity (LOG10) [2]: 3.93; IC50 [2, 18]: 0.002 µM; IC50 ([2]; Table 6, read-out: Fibrin IC50 (uM) (Suppl. Table 7)): 0.002 µM; Quadrant (FIG. 5b) ([3]; microglia HTS, Table 6): Q2; IC50 [6, 20]: > 20 µM; IC50 ([6]; Table 6, read-out: LPS IC50 (uM) (Suppl. Table 7)): > 20 µM; IC50 (primary rat microglia [7]): > 20 µM; IC50 (primary rat microglia [7]; Table 6): > 20 µM
5 | C[C@]12C=CC(=O)C=C1CC[C@@H]1[C@@H]2C(=O)C[C@@]2(C)[C@H]1CC[C@]2(O)C(=O)CO [Prednisone, reference compound] | > 20 |  |  |  | 66 | Q3 | > 50 | Q3 | Q3 | > 20 | 1% and 2% | > 20 | 45 | > 20 | > 20 | 1% and 0% | > 20 | 6 | > 50 | Q3 | IC50 [6, 20]: > 20 µM; IC50 (primary rat microglia [7]): > 20 µM
